The numbers were not newly measured in patent publication US20180125835A1, “Dosage and Use of an A2A Antagonist” (H. Lundbeck A/S, priority 2014, published 2018), which cites them from elsewhere.

Structures are written as SMILES.

For the data set the following is noted: in vivo; cited from earlier work.

`Cc1ccc(-c2nc(N)nc3c2nnn3Cc2cccc(CO[C@H]3CCOC3)n2)o1` [Compound V-81444]: the half-life (commonly the time needed for the level to fall by half in the phase considered) is 5 to 7 h.
